In PubChem BioAssay AID1508612:

Experiment: passive permeability, PAMPA, ADME assay (AID 1508612)
Conditions: pH 7.4, 30.0 min, 50.0 µM

SMILES	Papp [×10⁻⁶ cm/s]
COc1cccc(CNc2ccc(S(=O)(=O)Nc3nccs3)cc2)c1OC	313
Cc1cccc2nc(-c3cccnc3)c(Nc3ccc(C(C)C)cc3)n12	> 1000
NC1(c2ccc(NC(=O)c3ccnc(-c4cc(C(=O)O)ccn4)c3)cc2)CC1	8.31
Oc1ccc(CN2CC(CNc3ccccc3)C3(C2)CN(c2ccccc2)C3)cc1 (stereo unspecified)	> 1000
CN(C)c1cccc(-c2ncc(F)c(N3CCC(C(N)=O)CC3)n2)c1	599
NC(=O)C1CCN(c2ncc(-c3ccc(Br)cc3)s2)CC1	688
FC(F)(F)c1cccc(Sc2nc(-c3ccccc3)nnc2C(F)(F)F)c1	17
COc1cccc(-n2nc(C(=O)O)cc2-c2ccc(C3CCCCC3)c(Cl)c2)c1	> 1000
COc1ccccc1Nc1ccnc(N2CCN(C(=O)c3ccccc3Cl)CC2)n1	173
COc1ccc(-c2ccc(Nc3nc(-c4ccncc4)nc4ccccc34)cc2F)cc1F	39.9
O=C(c1ccc2c(c1)OCO2)N1CCC(Cc2nc(-c3cnccn3)no2)CC1	71.9
CC(=O)c1ccc(N2CCN(c3ccc(NC(=O)c4ccc(F)cc4)cc3C(=O)O)CC2)cc1	156
CCOc1cc(CCNC(=O)c2cc3sccc3n2Cc2ccccc2)cc(F)c1OCC	< 1
CCOc1ccc(CCNC(=O)c2cc3ccccc3n2Cc2cc(C)cc(C)n2)cc1OCC	> 1000
Cc1cccc(-c2cc(NC(=O)c3ccccc3C)n(-c3ccccc3)n2)c1	657
Cc1ccccc1C(C(=O)NC1CCCC1)N(C(=O)Cn1cnc2ccccc21)c1cccc(F)c1 (stereo unspecified)	> 1000
Cn1ncnc1[C@H]1c2n[nH]c(=O)c3cc(F)cc(c23)N[C@@H]1c1ccc(F)cc1	60.5
Cc1nc(Sc2nnnn2C)c2c(-c3ccccc3)csc2n1	826
Cc1ccc(-c2c(CN3CCN(c4cccc(C(F)(F)F)c4)CC3)csc2C)cc1	< 1
O=S(=O)(Nc1cccc(C(F)(F)F)c1)c1ccc(NS(=O)(=O)c2ccc3c(c2)OCCO3)cc1	668
CCN1C(=O)c2ccccc2S(=O)c2ccc(C(=O)NCc3ccc(OC)cc3)cc21 (stereo unspecified)	883
Clc1ccccc1-c1nnc2sc(-c3ccc4c(c3)OCO4)nn12	958
COc1ccccc1-c1nnc2sc(-c3ccc(N(C)C)cc3)nn12	278
Cc1cnc(-c2ccccc2C(C)C)nc1NCC1CCN(c2cccnc2)C1 (stereo unspecified)	> 1000
Nc1nc2c(s1)C(c1ccc(F)cc1F)CC(=O)N2 (stereo unspecified)	181
Nc1scc2c(C(=O)O)nn(-c3ccccc3)c(=O)c12	< 1

SMILES	Papp [×10⁻⁶ cm/s]
CSc1nc(N)cc(Oc2ccc(-c3nc(Nc4cccc(C(F)(F)F)c4)n[nH]3)cc2)n1	633
Cc1onc(-c2ccccc2)c1C(=O)Nc1nnc(COc2ccc(Cl)cc2)s1	247
CC(C)NC(=O)N1C[C@@H]2C[C@H](C1)c1ccc(-c3cccc(C(F)(F)F)c3)c(=O)n1C2	189
COC(C)(C)CCn1nc(Nc2c(C)cccc2C)c2cnc(Nc3ccc(OCCN4CCCC4)c(F)c3)nc21	> 1000
O=C(Nc1nc(-c2ccccc2)cs1)c1ccncc1NS(=O)(=O)c1ccc(N2CCCC2=O)cc1	314
COc1ccc(OC)c(-c2nnc3ccc(-c4ccc(OC)c(O[C@@H]5CCOC5)c4)nn23)c1	877
CC(C)(C)C1CCc2[nH]c3ccccc3c(=O)c2C1 (stereo unspecified)	356
COc1c2c(c3c(c1CCC(=O)O)OC(C)(C)C=C3)OC(C)(C)C=C2	43.9
Cc1nnc(-c2ccccc2C(C)C)nc1NCc1ccc(-c2cccnc2)cc1	> 1000
COc1ccc(Nc2nc(-c3cccc(OC)c3)no2)cc1	34.5
COC(=O)Nc1nc2ccc(Sc3ccccc3)cc2[nH]1	197
CN1C(=O)CN=C(c2ccc[nH]2)c2cc(Cl)ccc21	714
O=S(=O)(Nc1nccs1)c1ccc(NCc2cccc(Cl)c2O)cc1	18.4
CNC(=O)c1ccc(-c2cnc3cnc(C(=O)N(C)c4ccc(Cl)cc4)cn23)cc1	120
Cc1ccccc1C(=O)Nc1nc2c(s1)CC(C(C)(C)C)CC2 (stereo unspecified)	257
O=C1Nc2cc(Cl)ccc2/C1=C\c1cc(Cl)c(O)c(Cl)c1	78
C[C@@H](NC(=O)c1ncnc(N)c1Cl)c1ncc(C(=O)Nc2cc(C(F)(F)F)c(Cl)cn2)s1	> 1000
Cc1ccccc1C(=O)N1CCc2cc(-c3nc(NC(=O)Cc4ccccc4)sc3C)ccc21	> 1000
CC(=O)c1ccc(N2CCN(S(=O)(=O)c3cc4c(cc3Cl)NC(=O)C4)CC2)cc1	558
O=C(Nc1ncnc2sc3c(c12)CCCCC3)c1ccco1	> 1000
Cc1ccc(S(=O)(=O)Nc2cc(F)ccc2C(=O)Nc2nc(-c3ccccc3)cs2)cc1	244
O=[S+]([O-])(Nc1ccc(C2CCNCC2)cc1)c1ccc(NCc2ccc(Cl)cc2O)cc1	2.21
Cc1cc(C)c(C(=O)Nc2cccc([S+](=O)([O-])N3CCCCC3)c2)[nH]1	936
COc1ccc(Cn2c(=O)[nH]c3cc(C(=O)NCCCN4CCCCC4)ccc3c2=O)cc1	16.8
COc1c(O)ccc2c1CN1CCc3cc4c(cc3[C@@H]1C2)OCO4	> 1000
